Columns and labels:
IMP-1 = IMP-1 (Serratia marcescens, UniProt P52699); assay: biochemical; type: biochemical; conditions: CCF2-FA substrate, 2 hours at 25° C; read-out: IMP-1 IC50
How it was run: (§1)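 Semi-log dose-response curves, fitted with a 4-parameter model, gave IC50s. The underlying signal was CCF2-FA fluorescence following 2 hours at 25° C with enzyme, substrate and inhibitor combined.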

NDM-1 = NDM-1 (Klebsiella pneumoniae, UniProt C7C422); assay: biochemical; type: biochemical; conditions: CCF2-FA substrate, 2 hours at 25° C; read-out: NDM-1 IC50
Sequence of NDM-1 (C7C422 whole entry, looked up, species assumed): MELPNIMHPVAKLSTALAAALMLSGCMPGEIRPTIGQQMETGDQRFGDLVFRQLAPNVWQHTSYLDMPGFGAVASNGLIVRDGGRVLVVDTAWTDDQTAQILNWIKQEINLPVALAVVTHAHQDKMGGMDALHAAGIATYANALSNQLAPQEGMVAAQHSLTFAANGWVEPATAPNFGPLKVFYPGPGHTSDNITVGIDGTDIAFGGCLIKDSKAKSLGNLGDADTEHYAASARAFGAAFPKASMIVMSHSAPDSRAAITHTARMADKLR
How it was run: as §1

VIM-1 = VIM-1 (Pseudomonas aeruginosa (strain ATCC 15692 / DSM 22644 / CIP 104116 / JCM 14847 / LMG 12228 / 1C / PRS 101 / PAO1), UniProt A0A0F7KYQ8); assay: biochemical; conditions: CCF2-FA substrate, 2 hours at 25° C
How it was run: as §1

[1] = tested on: Escherichia coli expressing NDM-1 (CLB30005, CLB30016); type: cell-based; conditions: with imipenem 1 μg/ml; 95% inhibition of bacterial growth
How it was run: (§2)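 Restoration of imipenem susceptibility (1 μg/ml imipenem) was judged by absorbance after 22–24 h at 35° C. Test compound was added to bacteria suspended 1:100 in 1.1× CAMHB from overnight blood-agar cultures.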

[2] = tested on: Klebsiella pneumoniae expressing VIM-1 (IHMA599644); type: cell-based; conditions: with imipenem 1 μg/ml; 95% inhibition of bacterial growth
How it was run: as §2

[3] = tested on: Serratia marcescens expressing IMP-1 (CL5741); type: cell-based; conditions: with imipenem 1 μg/ml; 95% inhibition of bacterial growth
How it was run: as §2

[4] = tested on: P. aeruginosa expressing IMP-1, efflux+ (MB9798); type: cell-based, Pseudomonas aeruginosa; conditions: for P. aeruginosa expressing IMP-1, efflux+ (MB9798) MITC95: imipenem at 2 μg/mL, in the presence of a class A, C, D serine β-lactamase inhibitor closely related to relebactam; for Efflux ratio: ratio MITC95 PA_9798/MITC95 PA_9799
From the text: (§3) The strain background is Pseudomonas aeruginosa PAO1.

[5] = tested on: P. aeruginosa expressing IMP-1, efflux− (MB9799); assay: Efflux: concentration of MBL inhibitor which restores susceptibility to imipenem; type: cell-based, Pseudomonas aeruginosa; conditions: imipenem at 2 μg/mL, in the presence of a class A, C, D serine β-lactamase inhibitor closely related to relebactam
From the text: as §3

Sequence of IMP-1 (P52699 whole entry, looked up, species assumed): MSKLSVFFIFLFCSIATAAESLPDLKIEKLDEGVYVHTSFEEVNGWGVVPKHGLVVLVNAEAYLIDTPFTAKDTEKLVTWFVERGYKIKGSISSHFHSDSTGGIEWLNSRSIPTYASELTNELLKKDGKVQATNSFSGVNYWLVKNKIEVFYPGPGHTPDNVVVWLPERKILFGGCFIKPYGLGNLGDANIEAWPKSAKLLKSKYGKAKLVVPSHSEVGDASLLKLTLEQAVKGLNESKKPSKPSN

Row | SMILES | IC50 (IMP-1) [nM] | IC50 (NDM-1) [nM] | IC50 (VIM-1) [nM] | Escherichia coli expressing NDM-1 (CLB30016) MITC95 [1] [µM] | Klebsiella pneumoniae expressing VIM-1 (IHMA599644) MITC95 [2] [µM] | Serratia marcescens expressing IMP-1 (CL5741) MITC95 [3] [µM] | P. aeruginosa expressing IMP-1, efflux+ (MB9798) MITC95 [4] [µM] | Efflux ratio [4] | P. aeruginosa expressing IMP-1, efflux− (MB9799) MITC95 [5] [µM]
1 | NCCS(=O)(=O)c1ccc(-c2ccc3cccnc3c2)c(-c2nnn[nH]2)c1S(N)(=O)=O.O=C(O)C(F)(F)F [Example 159, 2-((4-(quinolin-7-yl)-2-sulfamoyl-3-(1H-tetrazol-5-yl)phenyl)sulfonyl)ethanaminium 2,2,2-trifluoroacetate] | 0.487 | 1.1 | 0.264 | 1.563 | 3.125 | 3.125 | 12.5 | 8.00 | 1.563
2 | Cn1ncc2cc(-c3ccc(S(=O)(=O)CCN)c(S(N)(=O)=O)c3-c3nnn[nH]3)ccc21.O=C(O)C(F)(F)F [Example 160, 2-((4-(1-methyl-1H-indazol-5-yl)-2-sulfamoyl-3-(1H-tetrazol-5-yl)phenyl)sulfonyl)ethanaminium 2,2,2-trifluoroacetate] | 0.568 | 1.02 | 0.375 | 1.563 | 6.25 | 3.125 | 12.5 | 8.00 | 1.563
3 | NCCS(=O)(=O)c1ccc(-c2cccc(S(=O)(=O)NC3CC3)c2)c(-c2nnn[nH]2)c1S(N)(=O)=O.O=C(O)C(F)(F)F [Example 161, 2-((3′-(N-cyclopropylsulfamoyl)-3-sulfamoyl-2-(1H-tetrazol-5-yl)-[1,1′-biphenyl]-4-yl)sulfonyl)ethanaminium 2,2,2-trifluoroacetate] | 1.69 | 3.47 | 3.04 | 6.25 | 12.5 | 6.25 | 50 | 31.99 | 1.563
4 | Cc1n[nH]c2cc(F)c(-c3ccc(S(=O)(=O)CCN)c(S(N)(=O)=O)c3-c3nnn[nH]3)cc12.O=C(O)C(F)(F)F [Example 162, 2-((4-(6-fluoro-3-methyl-1H-indazol-5-yl)-2-sulfamoyl-3-(1H-tetrazol-5-yl)phenyl)sulfonyl)ethanaminium 2,2,2-trifluoroacetate] | 2.81 | 2.78 | 0.32 | 3.125 | 6.25 | 3.125 | 100 | 63.98 | 1.563
5 | NCCS(=O)(=O)c1ccc(-c2ccc3[nH]nc(C(F)(F)F)c3c2)c(-c2nnn[nH]2)c1S(N)(=O)=O.O=C(O)C(F)(F)F [Example 163, 2-((2-sulfamoyl-3-(1H-tetrazol-5-yl)-4-(3-(trifluoromethyl)-1H-indazol-5-yl)phenyl)sulfonyl)ethanaminium 2,2,2-trifluoroacetate] | 1.22 | 0.98 | 0.12 | 1.563 | 3.125 | 3.125 | 100 | 127.99 | 0.7813
6 | COc1ccc(-c2ccc(S(=O)(=O)CCN)c(S(N)(=O)=O)c2-c2nnn[nH]2)c2[nH]c(C(F)(F)F)nc12.O=C(O)C(F)(F)F [Example 164, 2-((4-(4-methoxy-2-(trifluoromethyl)-1H-benzo[d]imidazol-7-yl)-2-sulfamoyl-3-(1H-tetrazol-5-yl)phenyl)sulfonyl)ethanaminium 2,2,2-trifluoroacetate] | 0.233 | 0.147 | 0.143 | 6.25 | 6.25 | 3.125 | 6.25 | 2.00 | 3.125
7 | NCCS(=O)(=O)c1ccc(-c2ccc3c(=O)nc[nH]c3c2)c(-c2nnn[nH]2)c1S(N)(=O)=O.O=C(O)C(F)(F)F [Example 165, 2-((4-(4-oxo-1,4-dihydroquinazolin-7-yl)-2-sulfamoyl-3-(1H-tetrazol-5-yl)phenyl)sulfonyl)ethanaminium 2,2,2-trifluoroacetate] | 1.6 | 2.48 | 0.571 | 3.125 | 6.25 | 3.125 | 12.5 | 4.00 | 3.125
8 | NCCS(=O)(=O)c1ccc(-c2ccc3c(c2)CNC3=O)c(-c2nnn[nH]2)c1S(N)(=O)=O.O=C(O)C(F)(F)F [Example 166, 2-((4-(1-oxoisoindolin-5-yl)-2-sulfamoyl-3-(1H-tetrazol-5-yl)phenyl)sulfonyl)ethanaminium 2,2,2-trifluoroacetate] | 1.51 | 2.79 | 0.327 | 1.563 | 6.25 | 3.125 | 12.5 | 8.00 | 1.563
9 | NCCS(=O)(=O)c1ccc(-c2ccc3[nH]ncc3c2)c(-c2nnn[nH]2)c1S(N)(=O)=O.O=C(O)C(F)(F)F [Example 167, 2-((4-(1H-indazol-5-yl)-2-sulfamoyl-3-(1H-tetrazol-5-yl)phenyl)sulfonyl)ethanaminium 2,2,2-trifluoroacetate] | 1.07 | 0.882 | 0.343 | 6.25 | 3.125 | 3.125 | 6.25 | 8.00 | 0.7813
10 | NCCS(=O)(=O)c1ccc(-c2cnc(N)c(F)c2)c(-c2nnn[nH]2)c1S(N)(=O)=O.O=C(O)C(F)(F)F [Example 168, 2-((4-(6-amino-5-fluoropyridin-3-yl)-2-sulfamoyl-3-(1H-tetrazol-5-yl)phenyl)sulfonyl)ethanaminium 2,2,2-trifluoroacetate] | 2.02 | 2.5 | 0.515 | 1.563 | 6.25 | 3.125 | 6.25 | 4.00 | 1.563

— patent US10227331B2 (priority 2015, dated 2019)
